Laboratory results from US7674795B2, “Fluorene derivatives, composition containing said derivatives and the use thereof” (Aventis Pharma SA, priority 2005, dated 2010).
Counter-ions that a name gives are not always drawn.

Molecular target: Hsp82 (Saccharomyces cerevisiae, UniProt P02829)
Test: PK/LDH enzyme coupling test of the ATPase activity of Hsp82 (NADH decrease at 340 nm)
Type: biochemical
Conditions: 1 μM Hsp82, 250 μM ATP, 37° C., pyruvate kinase/lactate dehydrogenase coupling, read-out: Hsp82 ATPase IC50
Excerpt: The formation of ADP due to the ATPase activity of Hsp82 was utilized for developing another method of evaluating the enzymatic activity of this enzyme by application of an enzyme coupling system employing pyruvate kinase (PK) and lactate dehydrogenase (LDH). In this spectrophotometric method of the kinetic type, the PK catalyses the formation of ATP and of pyruvate starting from phosphoenol-pyruvate (PEP) and the ADP produced by HSP82. The pyruvate that formed, an LDH substrate, is then converted to lactate in the presence of NADH. In this case, the decrease in the concentration of NADH, measured by the decrease in absorbance at wavelength of 340 nm, is proportional to the concentration of ADP produced by HSP82. […] This mixture is preincubated at 37° C. for 30 min before adding 3.77 units of LDH and 3.77 units of PK. The reaction is started by adding the product to be evaluated, in variable concentrations, and of Hsp82, at a concentration of 1 μM. The enzymatic activity of Hsp82 is then measured continuously in a microplate reader at 37° C., at wavelength of 340 nm. The initial reaction rate is found by measuring the slope of the tangent at the origin of the recorded curve. The enzymatic activity is expressed as μM of ADP formed per minute. The effect of the various products tested is expressed as percentage of inhibition of ATPase activity, using the following codes: • A: […]

Chain of Hsp82 (P02829 whole entry): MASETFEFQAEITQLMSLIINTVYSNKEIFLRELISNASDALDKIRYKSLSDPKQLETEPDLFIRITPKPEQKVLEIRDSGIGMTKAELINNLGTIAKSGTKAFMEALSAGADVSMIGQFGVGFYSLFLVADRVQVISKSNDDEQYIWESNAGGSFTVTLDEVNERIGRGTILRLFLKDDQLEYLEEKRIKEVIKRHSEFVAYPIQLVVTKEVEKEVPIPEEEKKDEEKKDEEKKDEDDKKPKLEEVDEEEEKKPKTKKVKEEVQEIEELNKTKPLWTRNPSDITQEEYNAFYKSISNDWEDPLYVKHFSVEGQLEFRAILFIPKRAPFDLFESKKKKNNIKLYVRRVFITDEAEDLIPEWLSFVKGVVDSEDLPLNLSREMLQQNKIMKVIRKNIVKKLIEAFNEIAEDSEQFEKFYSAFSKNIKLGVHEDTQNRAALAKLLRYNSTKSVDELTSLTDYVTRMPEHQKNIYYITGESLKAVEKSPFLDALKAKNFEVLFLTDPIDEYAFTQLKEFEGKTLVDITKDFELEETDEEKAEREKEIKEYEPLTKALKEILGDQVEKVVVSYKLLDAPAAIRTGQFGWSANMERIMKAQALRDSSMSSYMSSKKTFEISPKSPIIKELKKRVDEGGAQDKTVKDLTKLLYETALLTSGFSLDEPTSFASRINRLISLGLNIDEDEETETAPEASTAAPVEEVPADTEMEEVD

Row | IC50 [µM] | SMILES
1 | < 1 | Nc1cc(C(=O)NC2c3ccccc3-c3c(-c4nc5ccncc5[nH]4)cccc32)ccn1 (racemic) [Example 73, 2-amino-N-[4-(3H-imidazo[4,5-c]pyridin-2-yl)-9H-fluoren-9(R,S)-yl]-isonicotinamide]
2 | 1 to 10 | O=C(NC1c2ccccc2-c2c(-c3nc4ccncc4[nH]3)cccc21)c1ccnc(Cl)c1 (racemic) [Example 87, 2-chloro-N-[4-(3H-imidazo[4,5-c]pyridin-2-yl)-9H-fluoren-9(R,S)-yl]-isonicotinamide]
3 | 1 to 10 | NC(=O)CCC(=O)NC1c2ccccc2-c2c(-c3nc4cnccc4[nH]3)cccc21 (racemic) [Example 40, N-[4-(3H-imidazo[4,5-c]pyridin-2-yl)-9H-fluoren-9(R,S)-yl]-succinamide trifluoroacetate]
4 | 1 to 10 | c1ccc(CNN=C2c3ccccc3-c3c2cccc3-c2nc3cnccc3[nH]2)cc1 (mixture of isomers) [Example 8, N-benzyl-N′-[4-(1H-imidazo[4,5-c]pyridin-2-yl)-fluoren-9-ylidene]-hydrazine, 55/45 mixture of E and Z isomers]
5 | 1 to 10 | O=C(NC1c2ccccc2-c2c(-c3nc4ccncc4[nH]3)cccc21)c1cc(O)ncn1 (centres unmarked) [Example 93, [4-(3H-imidazo[4,5-c]pyridin-2-yl)-9H-fluoren-9-yl]amide of 6-hydroxypyrimidine-4-carboxylic acid]
6 | 1 to 10 | CCOC(=O)NC1c2ccccc2-c2c(-c3nc4cnccc4[nH]3)cccc21 (racemic) [Example 20, ethyl ester of [4-(3H-imidazo[4,5-c]pyridin-2-yl)-9H-fluoren-9(R,S)-yl]-carbamoic acid]
7 | 1 to 10 | CNc1cc(C(=O)NC2c3ccccc3-c3c(-c4nc5ccncc5[nH]4)cccc32)ccn1 (racemic) [Example 116, N-[4-(3H-imidazo[4,5-c]pyridin-2-yl)-9H-fluoren-9(R,S)-yl]-2-methylamino-isonicotinamide]
8 | 1 to 10 | O=C(NC1c2ccccc2-c2c(-c3nc4ccncc4[nH]3)cccc21)c1ccncc1Br (racemic) [Example 98, 3-bromo-N-[4-(3H-imidazo[4,5-c]pyridin-2-yl)-9H-fluoren-9(R,S)-yl]-isonicotinamide]
9 | 1 to 10 | O=C(NC1c2ccccc2-c2c(-c3nc4ccncc4[nH]3)cccc21)c1cc(N2CCCCC2)nc2ccccc12 (racemic) [Example 119, [4-(3H-imidazo[4,5-c]pyridin-2-yl)-9H-fluoren-9(R,S)-yl]amide of 2-piperidin-1-yl-quinoline-4-carboxylic acid]
10 | 1 to 10 | O=C(NC1c2ccccc2-c2c(-c3nc4ccncc4[nH]3)cccc21)c1ccnc(F)c1 (racemic) [Example 95, 2-fluoro-N-[4-(3H-imidazo[4,5-c]pyridin-2-yl)-9H-fluoren-9(R,S)-yl]-isonicotinamide]
11 | 1 to 10 | O=C(Cc1n[nH]c(S)n1)NC1c2ccccc2-c2c(-c3nc4ccncc4[nH]3)cccc21 (racemic) [Example 42, N-[4-(3H-imidazo[4,5-c]pyridin-2-yl)-9H-fluoren-9(R,S)-yl]-2-(5-mercapto-4H-1,2,4-triazol-3-yl)-acetamide trifluoroacetate]
12 | 10 to 100 | c1ccc2c(c1)Cc1cccc(-c3nc4cnccc4[nH]3)c1-2 [Example 7, 2-(9H-fluoren-4-yl)-3H-imidazo[4,5-c]pyridine]
13 | 1 to 10 | NC(=O)c1cccc(C(=O)NC2c3ccccc3-c3c(-c4nc5ccncc5[nH]4)cccc32)c1 (racemic) [Example 126, N-[4-(3H-imidazo[4,5-c]pyridin-2-yl)-9H-fluoren-9(R,S)-yl]isophthalamide]
14 | < 1 | COC(=O)c1cc(C(=O)NC2c3ccccc3-c3c(-c4nc5ccncc5[nH]4)cccc32)ccn1 (racemic) [Example 108, methyl ester of 4-[4-(3H-imidazo[4,5-c]pyridin-2-yl)-9H-fluoren-9(R,S)-ylcarbamoyl]-pyridine-2-carboxylic acid]
15 | 1 to 10 | O/N=C1\c2ccccc2-c2c1cccc2-c1nc2cnccc2[nH]1 [Example 19, 4-(3H-imidazo[4,5-c]pyridin-2-yl)-fluoren-9-one oxime (Z)]
16 | 10 to 100 | NC1c2ccccc2-c2c(-c3nc4cnccc4[nH]3)cccc21 (racemic) [Example 6, 4-(3H-imidazo[4,5-c]pyridin-2-yl)-9H-fluorene-9(R,S)-amine]

Row | IC50 [µM] | SMILES
17 | 10 to 100 | O=C(N[C@H]1c2ccccc2-c2c(-c3nc4ccncc4[nH]3)cccc21)c1cccc2ncccc12 (single isomer, unassigned) [Example 14B]
18 | 1 to 10 | NC(=O)C[C@@H](N)C(=O)NC1c2ccccc2-c2c(-c3nc4cnccc4[nH]3)cccc21 (stereo partly drawn) [Example 65, hydrochloride of (R)-2-amino-N1-[4-(3H-imidazo[4,5-c]pyridin-2-yl)-9H-fluoren-9(R,S)-yl]-succinamide]
19 | 10 to 100 | O=C(NC1c2ccccc2-c2c(-c3nc4ccncc4[nH]3)cccc21)c1ccc2[nH]c(=O)[nH]c2c1 (racemic) [Example 43, [4-(3H-imidazo[4,5-c]pyridin-2-yl)-9H-fluoren-9(R,S)-yl]amide of 2-oxo-2,3-dihydro-1H-benzimidazole-5-carboxylic acid]
20 | 1 to 10 | O=C(NC1c2ccccc2-c2c(-c3nc4ccncc4[nH]3)cccc21)c1ccnc(CO)c1 (racemic) [Example 94, 2-hydroxymethyl-N-[4-(3H-imidazo[4,5-c]pyridin-2-yl)-9H-fluoren-9(R,S)-yl]-isonicotinamide]
21 | 1 to 10 | COCCCNC(=O)c1cc(C(=O)NC2c3ccccc3-c3c(-c4nc5ccncc5[nH]4)cccc32)ccn1 (racemic) [Example 112, 4-{[4-(3H-imidazo[4,5-c]pyridin-2-yl)-9H-fluoren-9(R,S)-yl]amide}-2-[(3-methoxy-propyl)-amide] of pyridine-2,4-dicarboxylic acid]
22 | 1 to 10 | O=C(NC1c2ccccc2-c2c(-c3nc4ccncc4[nH]3)cccc21)c1ccncc1F (racemic) [Example 114, 3-fluoro-N-[4-(3H-imidazo[4,5-c]pyridin-2-yl)-9H-fluoren-9(R,S)-yl]-isonicotinamide]
23 | 1 to 10 | ON=C1c2ccccc2-c2c1cccc2-c1nc2ccc(F)cc2[nH]1 (racemic) [Example 70, 4-(6-fluoro-1H-benzimidazol-2-yl)-fluoren-9-one oxime (Z,E)]
24 | 1 to 10 | O=C(Cc1ccncc1)NC1c2ccccc2-c2c(-c3nc4ccncc4[nH]3)cccc21 (racemic) [Example 37, N-[4-(3H-imidazo[4,5-c]pyridin-2-yl)-9H-fluoren-9(R,S))-yl]-2-pyridin-4-yl-acetamide trifluoroacetate]
25 | 10 to 100 | Cc1noc(C)c1NC(=O)NC1c2ccccc2-c2c(-c3nc4ccncc4[nH]3)cccc21 (racemic) [Example 76, 1-(3,5-dimethyl-isoxazol-4-yl)-3-[4-(3H-imidazo[4,5-c]pyridin-2-yl)-9H-fluoren-9(R,S)-yl]-urea]
26 | 1 to 10 | ON=C1c2ccccc2-c2c1cccc2-c1nc2cnccc2[nH]1 (mixture of isomers) [Example 5, 4-(3H-imidazo[4,5-c]pyridin-2-yl)-fluoren-9-one oxime (Z, E)]
27 | 1 to 10 | O=C(NC1c2ccccc2-c2c(-c3nc4ccncc4[nH]3)cccc21)c1cc(-c2ccco2)nc2ccccc12 (racemic) [Example 113, [4-(3H-imidazo[4,5-c]pyridin-2-yl)-9H-fluoren-9(R,S)-yl]amide of 2-(furan-2-yl)-quinoline-4-carboxylic acid]
28 | 1 to 10 | O=C(NC1c2ccccc2-c2c(-c3nc4ccncc4[nH]3)cccc21)c1cc(O)nc2ccccc12 (racemic) [Example 31, [4-(3H-imidazo[4,5-c]pyridin-2-yl)-9H-fluoren-9(R,S)-yl]amide of 2-hydroxy-quinoline-4-carboxylic acid]
29 | 1 to 10 | CC(C)(C)OC(=O)N[C@H](CC(N)=O)C(=O)NC1c2ccccc2-c2c(-c3nc4cnccc4[nH]3)cccc21 (stereo partly drawn) [Example 61, tert-butyl ester of {(R)-2-carbamoyl-1-[4-(3H-imidazo[4,5-c]pyridin-2-yl)-9H-fluoren-9(R,S)-ylcarbamoyl]-ethyl}-carbamoic acid]
30 | 10 to 100 | NC(=O)CCNC(=O)NC1c2ccccc2-c2c(-c3nc4ccncc4[nH]3)cccc21 (racemic) [Example 79, trifluoroacetate of 3-{3-[4-(3H-imidazo[4,5-c]pyridin-2-yl)-9H-fluoren-9(R,S)-yl]-ureido}-propionamide]
31 | 1 to 10 | O=C(NC1c2ccccc2-c2c(-c3nc4ccc(F)cc4[nH]3)cccc21)c1cccc2ncccc12 (racemic) [Example 84, [4-(6-fluoro-1H-benzimidazol-2-yl)-9H-fluoren-9(R,S)-yl]amide of quinoline-5-carboxylic acid]
32 | 1 to 10 | O=C(NC1c2ccccc2-c2c(-c3nc4ccncc4[nH]3)cccc21)c1cccc2cc(O)ccc12 (racemic) [Example 34, hydrochloride of [4-(3H-imidazo[4,5-c]pyridin-2-yl)-9H-fluoren-9(R,S)-yl]amide of 6-hydroxy-naphthalene-1-carboxylic acid]
